In patent publication US20160058829A1, “ANTI-FIBROTIC PEPTIDES AND THEIR USE IN METHODS FOR TREATING DISEASES AND DISORDERS CHARACTERIZED BY FIBROSIS” (Thrasos Innovation, Inc., priority 2011, published 2016):
Entries after “also recorded” stand apart in the source; their conditions may differ. Positions of bridges follow the written chain, without caps; N, C: chain ends.

Tests used:
[1] = test system: HK-2 cells; assay: TNF-α-induced inflammatory cytokine production in HK-2 cells (ELISA); assay type: cell-based, human
Experimental: FIG. 37 provides a bar graph showing a comparison of the effects of THR-123 (or “THR-1405”) and the specific inhibitor SB 203580 on the level of TNF-α-induced IL-6 production, an inflammatory marker, in human renal tubule epithelial cells (HK-2).
FIG. 47A-FIG. 47C Anti-inflammatory activity of THR-123. PTEC-derived HK-2 (HK-2) cells were culture on 24-well plate (30,000 cells/well). Cells are exposed to K-SFM medium alone or TNF-α (5 ng/ml). Twenty hours after TNF-α incubation, cells are washed twice by pre-warmed culture media and subsequently cells are incubated with various concentration of THR-123 or BMP7 for 60 hours. At the end of incubation, culture medias are harvested and ELISA analysis are performed. FIG. 47A: IL-6, FIG. 47B: IL-8 and FIG. 47C: ICAM-1 results are shown. Analyze are performed in triplicates and data are shown as mean±s.e.m. in the graph.
Preliminary screening for optimization was based on anti-inflammatory efficacy in an in vitro cell-based assay using a human renal tubular epithelial cell line (HK-2). The assay tested the ability of compounds to reverse the increase in production of cytokine IL-6 that resulted from stimulation of the cells with tumor necrosis factor (TNF)-α. Sequence-activity analysis was carried out using the SVA program. After six optimization cycles, THR-123 (FIG. 2A) emerged as the lead compound, which was further evaluated in other relevant anti-fibrosis assays (vide infra).
Human proximal tubular epithelial cells-derived HK-2 cells were culture on 24-well plate (30,000 cells/well). Cells are exposed to K-SFM medium alone or […] (5 ng/ml). Twenty hours after TNF-α incubation, cells are washed twice by pre-warmed culture media and subsequently cells are incubated with various concentration of THR-123 or BMP7 for 60 hours. At the end of incubation, culture medias are harvested and ELISA analysis for IL-6, IL-8 and ICAM-1 are performed.

[2] = test system: p38 MAPK; assay: p38 MAPK phosphorylation in HK-2 cells; assay type: cell-based, human; conditions: HK-2 cells
From the text: The significance of p38 MAPK is that this protein is implicated as a non-Smad-dependent pathway for TGF-β-dependent EMT. Other non-Smad-dependent pathways implicated in TGF-β-dependent EMT include RhoA, Ras, PI3 kinase, Notch, and Wnt signaling pathways.
It has been shown that regulation p38 MAPK activity by pro-inflammatory factors has implications in fibrosis.

[3] = test system: human proximal tubule epithelial cells (HK2); assay: D-glucose-induced EMT assay, E-cadherin immunofluorescence with colorimetric image analysis; assay type: cell-based; conditions: for Percent inhibition of D-glucose-induced EMT: 0% = D-glucose untreated, 100% = media without D-glucose; for preservation of the epithelial phenotype (inhibition of EMT), anti-fibrotic effect: HK2 cells, high D-glucose
Experimental: Chronic hyperglycemia is a known cause of renal fibrosis in type 2 diabetes. The assay in this example induces the transdifferentiation from the epithelial to the mesenchymal phenotype (EMT) in human proximal tubule epithelial cells (HK2) by exposing them to high levels of D-glucose (100 mM and 200 mM). […] Exposure to 100 mM D-glucose results in the loss of E-cadherine expression as evidenced by the loss of the fluorescene signal. Using this assay test compounds are evaluated based on their ability to inhibit the EMT processes in the presence of high levels of D-glucose. FIGS. 4-16 are fluorescence micrographs of HK2 cells exposed to 100 mM D-glucose and 100 uM of SEQ IS NOs 1 through 11, respectively. Note that all but SEQ ID NOs 10 and 11 were able to preserve the epithelial phenotype (i.e., inhibit the EMT).
Results are provided in the context of FIG. 1 and Table 3, below. In Table 3 below, compound response is scored using image analysis as described herein in the method of Methods and Materials, part C. A 0% response corresponds to the signal for 100 mM (or 200 mM) D-glucose (untreated) while the 100% response corresponds to the signal for media in the absence of D-glucose.
It has been shown that transdifferentiation of proximal tubular epithelial cells is a critical step in the development of renal fibrosis, and that this is associated with a loss of the epithelial phenotypic marker, E-cadherin expression. This provides the basis for the development of a cell-based screening assay in which high concentrations of D-Glucose (50-100 mM) are used to induce a loss of E-cadherin expression in human renal proximal tubular epithelial (HK-2) cells, and compounds are tested for their ability to reverse the loss E-cadherin expression.
Materials: • Human proximal tubular epithelial cells, HK-2 (ATCC #CRL-2190) • Serum-free keratinocyte medium (GIBCO #17005-042, K-SFM) • Epidermal growth factor (EGF: 5 ng/mL) • Bovine pituitary extract (BPE: 40 ug/mL) • Primary antibody, Mouse IgG anti-E-cadherin (R&D Systems # MAB1838) • BSA [Sigma #A7030] • secondary antibody, FITC-conjugated Goat anti-mouse IgG (Fab2) fragment (Sigma-Aldrich # F-2653) • Paraformaldehyde (10%)) • Triton X-100 (Sigma # T-9284) • PBS (Fisher Scientific #BP399-1) • D-PBS (Invitrogen #14190-144) • Polypropylene tips (Axygen, Inc. 0.5-10 uL, cat # T-300-L-R; 1-200 uL, Cat # T-200-L-R; 1-1000 uL, Cat # T-1000-C-L-R) • 50 mL polypropylene culture tubes (Fisher Scientific, cat #06-443-18) • 24-well Coster cell culture plates (Fisher Scientific #07-200-84)
Reagents & Test Samples: • Positive control: BMP-7, assayed at concentrations 0.1 and 1 ug/mL • Test compounds (peptides): each tested at final concentrations 100 uM and 200 uM.
Assay Procedure for Cell Culture Assay: • Run assay in 24-well culture plates. • Seed HK-2 cells at a density between 25,000 and 30,000 cells per well in lmL K-SFM medium with supplements added (growth medium) • Incubate HK-2 cells for 24 hours at 37° C., and let cells attach the plate • Next Day afternoon, change the medium with K-SFM medium with no added supplements (serum free medium) in all wells except the first two control wells. • Continue incubating HK-2 cells overnight at 37° C. • Next Day, aspirate the medium from all wells. Incubate the cells in growth medium (first two control wells) or expose them to test compounds for 2 hours at 37° C. Final concentrations of each Test compound are 100 and 200 uM. BMP-7 serves as a positive control in the assay. • After incubation, add D-glucose to all wells except first two control wells. Final concentrations of D-Glucose are 50 and 100 mM. • Incubate HK-2 cells for 60 hours at 37° C. • Aspirate the medium from all wells. To the wells, add pre-warmed growth medium or serum free medium containing D-glucose alone or D-glucose and test compound or D-glucose and BMP-7. Final concentrations of D-Glucose and Test compound are the same as above. • Continue incubating HK-2 cells for 24 hours at 37° C. […]

[4] = test system: Streptozotocin-induced diabetic CD-1 mice; assay: Advanced diabetic nephropathy, captopril and captopril/THR-123 combination (month 7-8)

Row | Compound | Percent inhibition of D-glucose-induced EMT ([3]; 100 uM peptide) | Percent inhibition of D-glucose-induced EMT ([3]; 200 uM peptide) | also measured
1 | C[S+]([O-])c1ccc(-c2nc(-c3ccncc3)c(-c3ccc(F)cc3)[nH]2)cc1 (centres unmarked) [SB 203580, reference compound] |  |  | TNF-α-induced IL-6 production ([1]; HK-2 cells): significantly reduced; basal p38 phosphorylation [2]: inhibited p38 phosphorylation
2 | 1 (H-CYFDDSSNVLCKKYRS-OH; disulfide 1-11; SMILES CC(C)C[C@@H]1NC(=O)[C@H](C(C)C)NC(=O)[C@H](CC(N)=O)NC(=O)[C@H](CO)NC(=O)[C@H](CO)NC(=O)[C@H](CC(=O)O)NC(=O)[C@H](CC(=O)O)NC(=O)[C@H](Cc2ccccc2)NC(=O)[C@H](Cc2ccc(O)cc2)NC(=O)[C@@H](N)CSSC[C@@H](C(=O)N[C@@H](CCCCN)C(=O)N[C@@H](CCCCN)C(=O)N[C@@H](Cc2ccc(O)cc2)C(=O)N[C@@H](CCCNC(=N)N)C(=O)N[C@@H](CO)C(=O)O)NC1=O) [compound 1] | 125% | 98% | 
3 | (H)-CYFNDSSQVLCKRYRS-(OH) (H-CYFNDSSQVLCKRYRS-OH; disulfide 1-11; SMILES CC(C)C[C@@H]1NC(=O)[C@H](C(C)C)NC(=O)[C@H](CCC(N)=O)NC(=O)[C@H](CO)NC(=O)[C@H](CO)NC(=O)[C@H](CC(=O)O)NC(=O)[C@H](CC(N)=O)NC(=O)[C@H](Cc2ccccc2)NC(=O)[C@H](Cc2ccc(O)cc2)NC(=O)[C@@H](N)CSSC[C@@H](C(=O)N[C@@H](CCCCN)C(=O)N[C@@H](CCCNC(=N)N)C(=O)N[C@@H](Cc2ccc(O)cc2)C(=O)N[C@@H](CCCNC(=N)N)C(=O)N[C@@H](CO)C(=O)O)NC1=O) [SEQ ID NO: 10] |  |  | preservation of the epithelial phenotype (inhibition of EMT), anti-fibrotic effect [3]: very weak anti-fibrotic effect
4 | C[C@H](CS)C(=O)N1CCC[C@H]1C(=O)O [captopril] |  |  | mesangial matrix expansion ([4]; CPR p.o. 50 mg/Kg/day, THR-123 p.o. 5 mg/Kg/day, month 7 to 8): did not inhibit progression of mesangial matrix expansion; EMT program (E-cadherin/FSP1 double positive tubules) ([4]; month 7 to 8 treatment): inhibited; macrophage infiltration ([4]; month 7 to 8 treatment): partially; tubule cell apoptosis (TUNEL) in diabetic kidney ([4]; month 7 to 8 treatment): significantly inhibited apoptosis; macrophage infiltration ([4]; month 7 to 8 treatment, listed as CPR): inhibited macrophage infiltration
5 | 4 (H-CYYDNSSSVLCKRYRS-OH; disulfide 1-11; not fully specified (residue 14)) [compound 4] | 99% | 130% | 
6 | 8 (H-CYYDNSSSVLCKKYRS-OH; disulfide 1-11; SMILES CC(C)C[C@@H]1NC(=O)[C@H](C(C)C)NC(=O)[C@H](CO)NC(=O)[C@H](CO)NC(=O)[C@H](CO)NC(=O)[C@H](CC(N)=O)NC(=O)[C@H](CC(=O)O)NC(=O)[C@H](Cc2ccc(O)cc2)NC(=O)[C@H](Cc2ccc(O)cc2)NC(=O)[C@@H](N)CSSC[C@@H](C(=O)N[C@@H](CCCCN)C(=O)N[C@@H](CCCCN)C(=O)N[C@@H](Cc2ccc(O)cc2)C(=O)N[C@@H](CCCNC(=N)N)C(=O)N[C@@H](CO)C(=O)O)NC1=O) [compound 8] | 155% | 104% | 
7 | 7 (Ac-CYYDNSSSVLCKRYRS-OH; disulfide 1-11; SMILES CC(=O)N[C@H]1CSSC[C@@H](C(=O)N[C@@H](CCCCN)C(=O)N[C@@H](CCCNC(=N)N)C(=O)N[C@@H](Cc2ccc(O)cc2)C(=O)N[C@@H](CCCNC(=N)N)C(=O)N[C@@H](CO)C(=O)O)NC(=O)[C@H](CC(C)C)NC(=O)[C@H](C(C)C)NC(=O)[C@H](CO)NC(=O)[C@H](CO)NC(=O)[C@H](CO)NC(=O)[C@H](CC(N)=O)NC(=O)[C@H](CC(=O)O)NC(=O)[C@H](Cc2ccc(O)cc2)NC(=O)[C@H](Cc2ccc(O)cc2)NC1=O) [compound 7] | 65% | 103% | 
8 | (H)-CYYDDSSSVLCKKYRS-(OH) (H-CYYDDSSSVLCKKYRS-OH; disulfide 1-11; SMILES CC(C)C[C@@H]1NC(=O)[C@H](C(C)C)NC(=O)[C@H](CO)NC(=O)[C@H](CO)NC(=O)[C@H](CO)NC(=O)[C@H](CC(=O)O)NC(=O)[C@H](CC(=O)O)NC(=O)[C@H](Cc2ccc(O)cc2)NC(=O)[C@H](Cc2ccc(O)cc2)NC(=O)[C@@H](N)CSSC[C@@H](C(=O)N[C@@H](CCCCN)C(=O)N[C@@H](CCCCN)C(=O)N[C@@H](Cc2ccc(O)cc2)C(=O)N[C@@H](CCCNC(=N)N)C(=O)N[C@@H](CO)C(=O)O)NC1=O) [SEQ ID NO: 11] |  |  | preservation of the epithelial phenotype (inhibition of EMT), anti-fibrotic effect [3]: very weak anti-fibrotic effect; also recorded: unable to inhibit the EMT process; activity in anti-inflammatory assays [1]: positive
9 | 5 (H-CYYDNSSSVLCKRYRS-OH; disulfide 1-11; SMILES CC(C)C[C@@H]1NC(=O)[C@H](C(C)C)NC(=O)[C@H](CO)NC(=O)[C@H](CO)NC(=O)[C@H](CO)NC(=O)[C@H](CC(N)=O)NC(=O)[C@H](CC(=O)O)NC(=O)[C@H](Cc2ccc(O)cc2)NC(=O)[C@H](Cc2ccc(O)cc2)NC(=O)[C@@H](N)CSSC[C@@H](C(=O)N[C@@H](CCCCN)C(=O)N[C@@H](CCCNC(=N)N)C(=O)N[C@@H](Cc2ccc(O)cc2)C(=O)N[C@@H](CCCNC(=N)N)C(=O)N[C@@H](CO)C(=O)O)NC1=O) [compound 5] | 33% | 84% | 
